Measured values as given in ChEMBL document CHEMBL1201862, “PubChem BioAssay data set” (2004).
Activity calls are given as the source filed them.

Assays:
[1] = biological target: Peroxisome proliferator-activated receptor gamma/Nuclear receptor coactivator 1 (Homo sapiens, UniProt P37231); experiment: (§1) TR-FRET dose response biochemical High Throughput Screening assay for agonists of the steroid receptor coactivator 1 (SRC-1) recruitment by the peroxisome proliferator-activated receptor gamma (PPAR gamma): non-selective agonists. [Related pubchem assays (depositor defined):AID1300, AID1808, AID504735, AID631]; assay type: protein assay
[2] = biological target: Peroxisome proliferator-activated receptor gamma/Nuclear receptor coactivator 3 (Homo sapiens, UniProt P37231); experiment: as §1, with “3 (SRC-3)” for “1 (SRC-1)”, “assays: 1301 (Confirmation screen.), 1048 (Primary screen.)]” for “assays (depositor defined):AID1300, AID1808, AID504735, AID631]”; assay type: functional
[3] = biological target: Peroxisome proliferator-activated receptor gamma/Nuclear receptor coactivator 2 (Homo sapiens, UniProt P37231); experiment: TR-FRET dose response biochemical High Throughput Screening assay for agonists of the steroid receptor coactivator 2 (SRC-2) recruitment by the peroxisome proliferator-activated receptor gamma (PPAR gamma): non-selective agonists. [Related pubchem assays: 1297, 1032 ]; assay type: functional
[4] = biological target: T1, Ubiquitin-conjugating enzyme E2 N (Homo sapiens, UniProt P61088); assay type: functional;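 note: Dose-response confirmation in a TR-FRET assay detecting UBC13-driven polyubiquitin chain formation, inhibition measured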
T1 sequence (P61088 whole entry): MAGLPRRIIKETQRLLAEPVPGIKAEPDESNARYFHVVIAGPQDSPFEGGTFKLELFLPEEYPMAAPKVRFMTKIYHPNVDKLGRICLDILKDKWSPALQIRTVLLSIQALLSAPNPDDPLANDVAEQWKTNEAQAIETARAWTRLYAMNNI

[5] = biological target: DNA damage-inducible transcript 3 protein (Mus musculus, UniProt P35639); assay type: functional, Cricetulus griseus
[6] = biological target: Troponin, cardiac muscle (Homo sapiens, UniProt P19429+P45379+P63316); experiment: Fluorescence-based biochemical high throughput dose response assay for activators of the calcium sensitivity of cardiac Regulated Thin Filaments (RTF). [Related pubchem assays (depositor defined):AID493008, AID493018, AID504382, AID504383]; assay type: protein-complex assay
[7] = biological target: T2, X-box-binding protein 1 (Homo sapiens, UniProt P17861); assay type: functional, Cricetulus griseus;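 note: confirmatory dose-response counter-screen serving a CHOP assay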
T2 sequence (P17861 whole entry): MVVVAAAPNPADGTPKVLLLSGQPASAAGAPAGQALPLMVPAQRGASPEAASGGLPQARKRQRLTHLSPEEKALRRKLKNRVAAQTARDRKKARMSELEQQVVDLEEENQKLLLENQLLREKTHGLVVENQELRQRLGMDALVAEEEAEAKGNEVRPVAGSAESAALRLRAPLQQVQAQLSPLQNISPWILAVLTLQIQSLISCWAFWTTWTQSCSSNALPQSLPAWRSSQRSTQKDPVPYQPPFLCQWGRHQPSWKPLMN

[8] = biological target: T3, Zinc finger protein mex-5 (Caenorhabditis elegans, UniProt Q9XUB2); experiment: potency of MEX-5 RNA-binding blockers – biochemical, C. elegans, fluorescence polarization, dose response (AID 1960)
T3 sequence (Q9XUB2 whole entry): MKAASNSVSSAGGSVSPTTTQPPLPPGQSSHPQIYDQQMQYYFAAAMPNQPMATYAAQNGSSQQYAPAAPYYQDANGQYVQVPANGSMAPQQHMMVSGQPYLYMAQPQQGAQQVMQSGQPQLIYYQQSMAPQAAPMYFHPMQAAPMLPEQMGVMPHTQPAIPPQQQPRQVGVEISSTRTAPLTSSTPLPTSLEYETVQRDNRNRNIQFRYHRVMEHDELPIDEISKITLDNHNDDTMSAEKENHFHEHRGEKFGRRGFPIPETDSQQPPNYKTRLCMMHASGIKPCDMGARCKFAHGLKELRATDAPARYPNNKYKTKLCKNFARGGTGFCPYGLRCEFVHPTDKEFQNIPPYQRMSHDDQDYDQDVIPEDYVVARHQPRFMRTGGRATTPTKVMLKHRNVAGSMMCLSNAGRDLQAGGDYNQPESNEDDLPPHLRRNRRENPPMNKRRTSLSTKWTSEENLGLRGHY

[9] = biological target: T4, Endoribonuclease toxin MazF (Escherichia coli K-12, UniProt P0AE70); experiment: activation of MazEF endoribonuclease cleavage – biochemical, fluorescence, single-stranded RNA substrate, uHTS hits, dose response (AID 588481); assay type: functional
T4 sequence (P0AE70 whole entry): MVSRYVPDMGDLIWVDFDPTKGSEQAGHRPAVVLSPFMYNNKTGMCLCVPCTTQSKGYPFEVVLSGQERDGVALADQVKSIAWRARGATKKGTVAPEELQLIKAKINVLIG

[10] = biological target: T5, RNA-binding protein pos-1 (Caenorhabditis elegans, UniProt G5EF15); experiment: disruptors of C. elegans POS-1 RNA interaction – biochemical, fluorescence polarization, dose response (AID 1964);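 note: purified POS-1 fused to maltose binding protein made in E. coli; potency of compounds blocking POS-1 binding to fluorescent RNA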
T5 sequence (G5EF15 whole entry): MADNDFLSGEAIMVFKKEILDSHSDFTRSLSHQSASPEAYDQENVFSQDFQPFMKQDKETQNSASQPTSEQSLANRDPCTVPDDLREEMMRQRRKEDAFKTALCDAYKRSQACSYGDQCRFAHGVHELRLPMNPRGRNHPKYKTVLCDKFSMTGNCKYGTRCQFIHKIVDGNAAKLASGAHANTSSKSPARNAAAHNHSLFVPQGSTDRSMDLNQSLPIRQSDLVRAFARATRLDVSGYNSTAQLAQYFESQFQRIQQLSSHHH

[11] = Luminescence Cell-Based Dose Confirmation HTS to Identify Inhibitors of Platelet Dense Granule Release. [Related pubchem assays: 1663 (Primary HTS), 1678 (Summary of Project)]; assay type: functional
[12] = biological target: T4, Endoribonuclease toxin MazF; experiment: substrate-only fluorescence increase artefacts – biochemical, single-stranded RNase substrate, counter-screen for MazEF activator project, dose response (AID 588502); assay type: functional
[13] = biological target: Luciferin 4-monooxygenase (Photinus pyralis, UniProt P08659); experiment: inhibition of purified Photinus pyralis luciferase – biochemical, luminescence, dose response (AID 1891)
[14] = biological target: T6, Dual specificity protein phosphatase 6 (Rattus norvegicus, UniProt Q64346); experiment: inhibition of rat DUSP6 enzyme activity – biochemical, in vitro, primary screen (AID 425)
T6 sequence (Q64346 whole entry): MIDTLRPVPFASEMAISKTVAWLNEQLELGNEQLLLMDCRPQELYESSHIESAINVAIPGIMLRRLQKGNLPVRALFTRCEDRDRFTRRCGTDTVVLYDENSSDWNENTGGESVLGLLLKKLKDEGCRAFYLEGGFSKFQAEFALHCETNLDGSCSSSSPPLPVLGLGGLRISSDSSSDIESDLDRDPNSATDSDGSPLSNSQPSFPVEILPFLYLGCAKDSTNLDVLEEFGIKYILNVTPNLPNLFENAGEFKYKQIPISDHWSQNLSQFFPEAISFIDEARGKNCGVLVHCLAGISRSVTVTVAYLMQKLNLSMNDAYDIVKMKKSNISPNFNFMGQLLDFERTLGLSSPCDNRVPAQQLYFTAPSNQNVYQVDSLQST

[15] = biological target: T7, Dual specificity protein phosphatase 3 (Homo sapiens, UniProt P51452); experiment: VHR phosphatase inhibition, dose response, selectivity assay for STEP inhibitor project, biochemical (AID 602374); assay type: functional; conditions: read-out: IC50_Mean
[16] = biological target: T8, Tyrosine-protein phosphatase non-receptor type 5 (Homo sapiens, UniProt P54829); experiment: PTPN5 enzyme inhibition – biochemical, fluorescence intensity, uHTS hits, confirmation (AID 602372); assay type: functional; conditions: read-out: IC50_Mean
T8 sequence (P54829 whole entry): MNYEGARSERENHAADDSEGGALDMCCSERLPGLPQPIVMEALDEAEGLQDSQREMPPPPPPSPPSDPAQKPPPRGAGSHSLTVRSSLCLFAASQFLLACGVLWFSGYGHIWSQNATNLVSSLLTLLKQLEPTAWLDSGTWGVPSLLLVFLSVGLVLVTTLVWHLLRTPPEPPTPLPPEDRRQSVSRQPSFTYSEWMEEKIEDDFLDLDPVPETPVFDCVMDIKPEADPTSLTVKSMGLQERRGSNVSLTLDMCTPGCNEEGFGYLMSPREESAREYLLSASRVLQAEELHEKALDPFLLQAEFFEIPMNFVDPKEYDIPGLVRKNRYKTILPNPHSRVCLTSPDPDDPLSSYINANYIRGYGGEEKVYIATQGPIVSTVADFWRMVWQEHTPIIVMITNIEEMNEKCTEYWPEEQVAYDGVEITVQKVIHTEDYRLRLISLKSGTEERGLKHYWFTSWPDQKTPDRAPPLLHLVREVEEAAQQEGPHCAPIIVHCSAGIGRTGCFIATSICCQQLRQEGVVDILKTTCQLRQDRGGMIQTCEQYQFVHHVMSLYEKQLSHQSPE

[17] = biological target: T7, Dual specificity protein phosphatase 3; experiment: VHR1 phosphatase inhibitors, primary screen, biochemical, absorbance, uHTS (AID 1654)
[18] = biological target: T7, Dual specificity protein phosphatase 3; experiment: VHR1 phosphatase inhibitors, biochemical (AID 1878)
[19] = biological target: T9, Tyrosine-protein phosphatase non-receptor type 11 (Homo sapiens, UniProt Q06124); experiment: PTPN11 enzyme inhibitors – biochemical, selectivity assay for STEP inhibitor project, dose response (AID 602367); assay type: functional; conditions: read-out: IC50_Mean
T9 sequence (Q06124 whole entry): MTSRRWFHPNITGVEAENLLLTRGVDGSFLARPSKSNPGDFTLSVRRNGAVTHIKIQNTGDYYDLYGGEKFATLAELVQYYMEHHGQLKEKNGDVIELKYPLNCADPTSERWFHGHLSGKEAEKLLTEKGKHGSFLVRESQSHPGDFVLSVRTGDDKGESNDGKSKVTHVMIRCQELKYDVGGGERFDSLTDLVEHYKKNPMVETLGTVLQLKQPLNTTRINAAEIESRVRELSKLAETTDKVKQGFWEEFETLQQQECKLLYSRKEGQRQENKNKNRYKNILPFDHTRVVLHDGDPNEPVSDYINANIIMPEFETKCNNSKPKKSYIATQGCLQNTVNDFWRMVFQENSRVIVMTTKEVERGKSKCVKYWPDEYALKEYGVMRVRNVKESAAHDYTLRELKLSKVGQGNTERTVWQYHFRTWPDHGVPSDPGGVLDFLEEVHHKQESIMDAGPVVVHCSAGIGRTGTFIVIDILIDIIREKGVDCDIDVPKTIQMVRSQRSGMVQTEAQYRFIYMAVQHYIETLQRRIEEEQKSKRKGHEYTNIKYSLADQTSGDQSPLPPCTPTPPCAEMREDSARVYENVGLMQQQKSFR

[20] = biological target: DNA dC->dU-editing enzyme APOBEC-3G (Homo sapiens, UniProt Q9HC16); assay type: functional;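 note: Dose-response counterscreen measuring inhibition of APOBEC3G DNA deaminase activity, run while confirming APOBEC3A inhibitors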
[21] = biological target: Bcl-2-like protein 10 (Homo sapiens, UniProt Q9HD36); experiment: Bcl-B/TR3 peptide binding disruption – biochemical, fluorescence polarization, FITC-TR3 peptide, selectivity assay for Bfl-1 inhibitor project, primary screen (AID 748);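 note: fluorescence polarization from a fluorescein-labelled TR3 peptide binding purified Bcl-B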
[22] = biological target: DNA dC->dU-editing enzyme APOBEC-3A (Homo sapiens, UniProt P31941); experiment: Dose Response confirmation of small molecule APOBEC3A DNA Deaminase Inhibitors via a fluorescence-based single-stranded DNA deaminase assay. [Related pubchem assays (depositor defined):AID493011, AID493024]; assay type: functional
[23] = biological target: T10, Carboxy-terminal domain RNA polymerase II polypeptide A small phosphatase 1 (Homo sapiens, UniProt Q9GZU7); experiment: CTDSP1 inhibitors, concentration-response, biochemical, absorbance readout, ultra-high-throughput screen actives (AID 540297); assay type: functional
T10 sequence (Q9GZU7 whole entry): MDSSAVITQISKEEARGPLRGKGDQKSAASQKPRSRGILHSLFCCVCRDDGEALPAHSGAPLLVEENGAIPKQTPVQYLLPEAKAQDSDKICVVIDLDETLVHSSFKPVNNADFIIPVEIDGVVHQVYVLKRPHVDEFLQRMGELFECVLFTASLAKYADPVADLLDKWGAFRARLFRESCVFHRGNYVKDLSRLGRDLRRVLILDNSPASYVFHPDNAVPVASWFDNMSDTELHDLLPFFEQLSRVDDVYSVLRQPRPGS

## COc1ccc(-c2c3c(nc4sc(C(=O)Nc5ccccc5)c(N)c24)CCC3)cc1
[1]
  EC50: > 79.4 µM (inactive)
[2]
  EC50: > 79.4 µM (not active)
[3]
  EC50: > 79.4 µM (not active)
[4]
  IC50: > 20 µM (inactive)

## NC(=O)CC(NC(=O)Cc1cccc2ccccc12)c1ccc(NCc2cc(F)ccc2F)c([N+](=O)[O-])c1 (stereo not drawn)
[5]
  Absolute IC50 (CHOP): 10 µM

## N#C/C(=C\c1c[nH]c2ccccc12)C(=O)Nc1ncc(Cc2ccc(Cl)cc2Cl)s1
[6]
  EC50: > 71.5 µM (inactive)

## Cn1nc(-c2ccccc2)cc1NC(=O)Nc1ccc(C(C)(C)C)cc1
[5]
  Absolute IC50 (CHOP): 10 µM
[7]
  Absolute IC50 (XBP1): 10 µM

## Cc1nnc(N2C(=O)C(O)=C(C(=O)c3ccco3)C2c2ccc(C(C)(C)C)cc2)s1 (stereo not drawn)
[8]
  EC50: 7.86 µM (active)
[1]
  EC50: > 2.94 µM (inactive)
[9]
  EC50: > 99 µM (inactive)
[2]
  EC50: > 79.4 µM (not active)
[10]
  EC50: 24.9 µM (active)
[11]
  EC50: > 112 µM (not active)
[12]
  EC50: 19.7 µM (active)
[3]
  EC50: 28.3 µM (not active)
[13]
  EC50: > 112 µM (not active)

## Cc1ccc(NC(=O)CN(C)c2ccc(S(=O)(=O)N3CCCC3)cn2)cc1
[6]
  EC50: > 71.5 µM (inactive)

## NC(=O)C1(N2CCCCC2)CCN(C(=S)Nc2ccc(S(N)(=O)=O)cc2)CC1
[14]
  IC50: > 158 µM (not active)
[15]
  IC50: 811 nM (active)
[16]
  IC50: 11.6 µM (active)
[17]
  IC50: 1.86 µM (active)
[18]
  IC50: 3.38 µM (active)
[19]
  IC50: 2 µM (active)

## O=C(COC(=O)C1CCN(S(=O)(=O)c2cc([N+](=O)[O-])ccc2Cl)CC1)Nc1ncc(Cl)cc1Cl
[20]
  IC50: 36.3 µM (active)
[21]
  IC50: 3.81 µM (active)
[22]
  IC50: 17.9 µM (active)
[23]
  IC50: 4.29 µM (active)
